Data taken from ChEMBL document CHEMBL5370672, “Discovery of Orally Bioavailable Phthalazinone Analogues as an ENPP1 Inhibitor for STING-Mediated Cancer Immunotherapy” (J Med Chem, 2023).
Calls of active or inactive are those of the source. No cut-off for these calls is given here.

Experiments:
Cytochrome P450 2C9 = Cytochrome P450 2C9 (Homo sapiens, UniProt P11712); experiment: Inhibition of CYP2C9 in human liver microsomes; type: ADME, Microsome
[1] = Oral bioavailability in BALB/c mouse at 20 mg/kg measured after 24 hrs by LC-MS/MS analysis; type: ADME, organism-based; conditions: in vivo
[2] = MRT (0 to t) in BALB/c mouse at 5 mg/kg, iv measured after 24 hrs by LC-MS/MS analysis; type: ADME, organism-based; conditions: in vivo
[3] = AUC (0 to infinity) in BALB/c mouse at 5 mg/kg, iv measured after 24 hrs by LC-MS/MS analysis; type: ADME, organism-based; set-up: dose 5 mg/kg, time 24 hrs, route iv; conditions: in vivo
Cytochrome P450 1A2 = molecular target: T1, Cytochrome P450 1A2 (Homo sapiens, UniProt P05177); experiment: Inhibition of CYP1A2 in human liver microsomes; type: ADME, Microsome
T1 sequence (P05177 whole entry): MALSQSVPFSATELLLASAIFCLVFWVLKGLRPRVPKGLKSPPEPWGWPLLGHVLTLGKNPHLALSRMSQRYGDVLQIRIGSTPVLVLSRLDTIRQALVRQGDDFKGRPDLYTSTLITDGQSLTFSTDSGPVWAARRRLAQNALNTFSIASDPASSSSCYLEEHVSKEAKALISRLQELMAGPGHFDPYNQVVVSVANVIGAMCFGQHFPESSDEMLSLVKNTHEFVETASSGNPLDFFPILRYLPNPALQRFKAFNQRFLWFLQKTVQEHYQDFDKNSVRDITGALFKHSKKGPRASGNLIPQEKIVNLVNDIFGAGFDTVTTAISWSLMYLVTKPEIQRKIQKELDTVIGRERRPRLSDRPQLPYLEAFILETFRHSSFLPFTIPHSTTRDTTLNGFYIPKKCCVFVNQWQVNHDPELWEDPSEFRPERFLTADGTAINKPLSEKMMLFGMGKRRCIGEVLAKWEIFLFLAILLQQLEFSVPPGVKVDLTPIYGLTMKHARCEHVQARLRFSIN

[4] = Metabolic stability in mouse liver microsome assessed as half-life by LC/MS analysis; type: ADME; conditions: liver microsomes
[5] = Tmax in BALB/c mouse at 20 mg/kg, po measured after 24 hrs by LC-MS/MS analysis; type: ADME, organism-based; conditions: in vivo
[6] = Toxicity in BALB/c mouse implanted with mouse CT26 cells assessed as effect on body weight at 200 mg/kg, po administered for 2 weeks and measured on day 15 in the presence of anti-PD-L1 antibody; type: organism-based; conditions: in vivo, 360 h, time 15 day
CT26 [7] = experiment: Antitumor activity against mouse CT26 cells implanted in BALB/c mouse assessed as tumor growth inhibition at 200 mg/kg, po administered for 2 weeks and measured on day 15 relative to control; type: functional; conditions: CT26, 360 h, time 15 day, read-out: TGI
[8] = molecular target: Stimulator of interferon genes protein (Homo sapiens) (UniProt Q86WV6); experiment: (§1) Activation of STING-mediated immune response in human HCT-116 cells transfected with ISRE reporter assessed as increase in cGAMP-induced ISRE activation at 25 to 100 uM preincubated with compound for 1 hrs followed by cGAMP addition and measured after 48 hrs by luciferase reporter gene assay; type: cell-based; conditions: filed as activator, dose 25-100 µM, time 49.0 hrs
Stimulator of interferon genes protein (Homo sapiens), sequence (Q86WV6 whole entry): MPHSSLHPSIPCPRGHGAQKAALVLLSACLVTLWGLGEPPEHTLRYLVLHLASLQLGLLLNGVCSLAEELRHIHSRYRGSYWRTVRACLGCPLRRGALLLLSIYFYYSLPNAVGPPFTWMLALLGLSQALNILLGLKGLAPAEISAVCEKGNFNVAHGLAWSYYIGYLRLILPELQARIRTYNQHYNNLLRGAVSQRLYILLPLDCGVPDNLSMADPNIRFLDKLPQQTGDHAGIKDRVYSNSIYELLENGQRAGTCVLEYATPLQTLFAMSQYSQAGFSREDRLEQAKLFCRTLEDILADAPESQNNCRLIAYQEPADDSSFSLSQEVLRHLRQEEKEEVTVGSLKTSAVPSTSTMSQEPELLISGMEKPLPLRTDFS

[9] = Tmax in BALB/c mouse at 5 mg/kg, iv measured after 24 hrs by LC-MS/MS analysis; type: ADME, organism-based; conditions: in vivo
CT26 [10] = experiment: Immunological memory derived antitumor activity against mouse CT26 cells implanted in BALB/c mouse assessed as tumor growth regression at 200 mg/kg, po preadministered with compound for 2 weeks followed by reinoculation of CT26 cells and measured on day 19 relative to control; type: functional; conditions: time 19 day
HCT-116 = experiment: Cytotoxicity against human HCT-116 cells assessed as reduction in cell viability upto 200 uM incubated for 48 hrs in the presence of cGAMP by celltiter 96 aqueous one solution cell proliferation assay; type: functional, cell-based
[11] = Clearance in BALB/c mouse at 5 mg/kg, iv measured after 24 hrs by LC-MS/MS analysis; type: ADME, organism-based; conditions: in vivo
Cytochrome P450 2D6 = Cytochrome P450 2D6 (Homo sapiens, UniProt P10635); experiment: Inhibition of CYP2D6 in human liver microsomes; type: ADME, Microsome
Cytochrome P450 2D6, sequence (P10635 whole entry): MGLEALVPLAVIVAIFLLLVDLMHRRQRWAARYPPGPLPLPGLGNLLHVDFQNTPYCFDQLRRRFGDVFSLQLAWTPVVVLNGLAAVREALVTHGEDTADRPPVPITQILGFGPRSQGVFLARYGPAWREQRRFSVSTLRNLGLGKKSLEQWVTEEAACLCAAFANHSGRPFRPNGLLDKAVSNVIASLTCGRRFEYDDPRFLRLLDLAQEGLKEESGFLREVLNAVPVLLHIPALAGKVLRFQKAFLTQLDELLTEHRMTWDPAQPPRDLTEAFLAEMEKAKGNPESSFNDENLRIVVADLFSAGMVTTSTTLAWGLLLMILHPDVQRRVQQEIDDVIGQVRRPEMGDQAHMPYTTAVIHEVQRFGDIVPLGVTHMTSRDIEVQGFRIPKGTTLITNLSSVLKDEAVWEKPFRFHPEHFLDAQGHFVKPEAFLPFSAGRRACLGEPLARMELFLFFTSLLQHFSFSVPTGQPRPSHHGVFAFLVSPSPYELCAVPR

[12] = molecular target: Stimulator of interferon genes protein (Homo sapiens) (UniProt Q86WV6); experiment: as §1, with “activation by measuring fold change” for “activation”; type: cell-based; conditions: filed as activator, dose 25-100 µM, time 49.0 hrs
[13] = Volume of distribution at steady state in BALB/c mouse at 5 mg/kg, iv measured after 24 hrs by LC-MS/MS analysis; type: ADME, organism-based; conditions: in vivo, read-out: Vdss
Cytochrome P450 3A4 = Cytochrome P450 3A4 (Homo sapiens, UniProt P08684); experiment: Inhibition of CYP3A4 in human liver microsomes; type: ADME, Microsome
Cytochrome P450 3A4, sequence (P08684 whole entry): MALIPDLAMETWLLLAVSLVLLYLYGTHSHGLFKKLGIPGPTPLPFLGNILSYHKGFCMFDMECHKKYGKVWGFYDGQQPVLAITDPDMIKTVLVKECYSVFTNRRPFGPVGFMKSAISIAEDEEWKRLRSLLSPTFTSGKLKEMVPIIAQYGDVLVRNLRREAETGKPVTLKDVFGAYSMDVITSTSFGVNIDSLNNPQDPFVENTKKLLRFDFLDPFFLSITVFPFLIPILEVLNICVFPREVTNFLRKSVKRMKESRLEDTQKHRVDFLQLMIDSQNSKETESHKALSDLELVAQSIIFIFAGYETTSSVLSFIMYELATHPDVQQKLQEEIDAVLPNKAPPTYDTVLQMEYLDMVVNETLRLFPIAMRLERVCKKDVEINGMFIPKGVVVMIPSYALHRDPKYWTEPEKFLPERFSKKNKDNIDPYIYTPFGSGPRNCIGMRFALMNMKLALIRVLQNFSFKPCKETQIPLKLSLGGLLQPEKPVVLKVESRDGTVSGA

THP-1 = experiment: Cytotoxicity against human THP-1 cells assessed as reduction in cell viability upto 50 uM incubated for 24 hrs in the presence of cGAMP by celltiter 96 aqueous one solution cell proliferation assay; type: toxicity, cell-based; conditions: thp-1, 24 h

Cytochrome P450 2C9, sequence (P11712 whole entry): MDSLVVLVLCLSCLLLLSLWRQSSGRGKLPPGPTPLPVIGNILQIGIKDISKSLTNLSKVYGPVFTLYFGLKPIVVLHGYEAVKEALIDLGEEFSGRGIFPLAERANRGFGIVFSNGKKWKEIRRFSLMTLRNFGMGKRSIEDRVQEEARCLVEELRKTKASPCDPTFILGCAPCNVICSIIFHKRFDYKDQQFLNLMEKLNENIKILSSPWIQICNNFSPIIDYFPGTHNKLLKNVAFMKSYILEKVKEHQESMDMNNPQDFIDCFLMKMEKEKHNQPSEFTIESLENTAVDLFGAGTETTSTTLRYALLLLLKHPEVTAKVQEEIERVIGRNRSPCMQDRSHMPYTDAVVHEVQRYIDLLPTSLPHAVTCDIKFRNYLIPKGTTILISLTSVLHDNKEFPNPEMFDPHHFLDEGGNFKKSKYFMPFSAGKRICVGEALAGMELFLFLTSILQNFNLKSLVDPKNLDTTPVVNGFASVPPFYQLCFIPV

## Cn1nc(Cc2ccc(NS(N)(=O)=O)cc2)c2ccccc2c1=O
Cytochrome P450 2C9
  IC50: > 10 µM
[1]
  bioavailability: 65.4%
[2]
  MRT last at 24 h: 2.83 h
[3]
  AUC(0-inf): 30900 ng·h/mL
Cytochrome P450 1A2
  IC50: > 10 µM
[4]
  half-life: 0.987 h
[5]
  Tmax: 1.67 h
[6]
  Activity: Non-Toxic
CT26 [7]
  inhibition in vivo at 200 mg/kg: 55%
[8]
  Activity: Active
[9]
  Tmax: 4.8 min
CT26 [10]
  Activity: 100%
HCT-116
  Activity: Not toxic
[11]
  clearance: 2.88 mL/min/kg
Cytochrome P450 2D6
  IC50: > 10 µM
[12]
  fold change (FC): 3.63
[13]
  Vd: 0.51 L/kg
Cytochrome P450 3A4
  IC50: > 10 µM
THP-1
  Activity: Non-Toxic
